Details of series [1]: method as in earlier work. Particulars: MMS, Mouse; ref MMV; cited from earlier work.
The subject of series [2] is E. multilocularis metacestodes. Put plainly: Peroral treatment of secondary infected mice. It counts as in vivo, BALB/c mice. Conditions: p.o. gavage 5 days per week, 4 weeks, MMV665807 100 mg/kg, ABZ 200 mg/kg. The method, then:
Animals were kept at a temperature-controlled 12/12 hours light cycle with food and water ad libitum and according to the Swiss Animal protection law. For the in vivo treatment of MMV665807, BALB/c mice (from Charles River, Sulzfeld, Germany), at the age of 8 weeks with an average body weight of 20 g, were i.p. infected with 200 μL metacestodes vesicle suspension. This material was prepared from in vitro-cultured metacestodes (strain H95), which were disintegrated by pressing the parasites through a 1 mL pipette tip. Parasite tissue was centrifuged at 500 x g for 5 min at room temperature before being mixed 1:1 in PBS.
Peroral (p.o.) drug treatments by gavage were initiated 6 weeks post-infection and performed as follows: group 1 received no treatment at all; group 2 received 100 μL corn oil containing 7.8 μL DMSO; group 3 mice were treated with 100 μL corn oil containing albendazole (ABZ) in 7.8 μL DMSO, in order to obtain a dosage of 200 mg/kg body weight (positive control); group 4 was treated with 100 μL corn oil containing MMV665807 in 7.8 μL DMSO, resulting in 100 mg/kg body weight. All mice were treated for a total time period of 4 weeks, with consecutive treatment during 5 days per week, and interruption of treatment for 2 days each week. At the end of the treatment, all mice were sedated by isoflurane and subsequently euthanized by CO2. All parasite tissue was resected, placed into a petri dish, and the parasite mass was weighed. Statistical analysis of the in vivo experiments was performed in R version 3.0.1. The data distribution was checked by Shapiro-Wilk test and eventual differences between treatment groups identified by the non-parametric Kruskal-Wallis test. P values were calculated by the non-parametric Wilcoxon […] test with Bonferroni-adjustment. Boxplot visualizations of the data were prepared in Microsoft Excel 2010.

On the set-up of series [3]: method as in earlier work. Particulars: ref MMV; cited from earlier work.
Series [4] relates to human foreskin fibroblasts (HFF). The series is described as follows: alamarBlue viability assay on HFF. It counts as cell-based. Conditions: Fibroblast, 120 h, 5 days. The method, then: For testing growth inhibitory effects on confluent host cells, cells were seeded in 96-well plates (10,000 cells per well for HFF and 50,000 cells per well for RH cells), in DMEM containing FBS (10%) and antibiotics (100 U penicillin, 100 μg streptomycin and 0.25 μg amphotericin B per mL medium) and were cultured overnight at 37°C, 5% CO2. Thereafter the drugs (10 μM) were added and diluted in a serial 1:2 dilutions down to 20 nM. The concentration range was further adjusted in subsequent setups. For testing growth inhibitory effects on proliferating cells, cells were seeded at 1,000 (HFF) and 5,000 (RH) cells per well, and were allowed to attach for 5 hours at 37°C before addition of the drugs. After 5 days of culture, cell viability was assessed by alamarBlue assay.
On the technique in general: Alamar Blue is a resazurin reagent that responds to reducing activity.

Series [5] has as its system E. multilocularis germinal layer cells. Put plainly: CellTiter-Glo viability assay on germinal layer cell cultures. In kind it is cell-based. Conditions: Echinococcus multilocularis, 120 h, 5 days, read-out: E.m. GL cells (IC50). The method, then: To assess the effects of MMV665807 on the viability of parasite cells, germinal layer cells were extracted according to Spiliotis et al. After overnight aggregate formation, 15 units of cells were distributed to a black 384 well plate (Nunc, Thermo Scientific, Reinach, Switzerland) in 12.5 μL medium. A concentration series (final concentrations of 3, 1, 0.3, 0.1, 0.03, 0.01 μM) of MMV665807, MMV665794 and mefloquine were prepared in medium and added 1:2 to the cells. For mefloquine, the concentration range was adjusted in a subsequent setup up to 100 μM. As negative control, DMSO was added accordingly. After 5 days of culture at 37°C under humid nitrogen atmosphere, 25 μL CellTiter-Glo (Promega, Dübendorf, Switzerland) including 1% TritonX-100 was added. Plates were incubated for 15 minutes on a shaker at room temperature and complete disruption of all cell aggregates was checked for before measurement of luminescence on a 2300 Enspire multilabel reader (Perkin-Elmer). Mean values and standard deviations were calculated and DMSO values set to 100% viability. The IC50 value was calculated in Microsoft Excel 2010 after logit-log transformation and averages as well as standard deviations of four independent setups were calculated.
In general terms: Cellular ATP, detected with luciferase, serves as a proxy for viable cell number.

In series [6] the test system is adult worms. More on the design: method as in PMID 24416463. Particulars: in vitro; read-out: IC50 against adult worms; cited from earlier work.
On the set-up of series [7]: method as in earlier work. Particulars: HMS, Mouse; ref MMV; cited from earlier work.

The structures appear in SMILES notation. Values joined by “and” are separate entries in the source; they are usually repeats but may differ in a detail not shown here. Identical values can stand only once. Like-named read-outs stand apart in the source and are kept apart here.

For orientation: IC50 means the concentration that gives 50% inhibition. As usually defined, the t½ is the time needed for the level to fall by half in the phase considered. In the case of `O=C(Nc1cccc(C(F)(F)F)c1)c1cc(Cl)ccc1O` [MMV665807], in series [1], the CL is 190.4 µL/min/mg. Besides, in series [1], the CLh is 80.4 mL/min/kg. In addition, the CLint in series [1] is given as 754.0 mL/min/kg; in series [7], 302.9 mL/min/kg. Moreover, in series [1], the T1/2 was 14.6 min. Besides, the “parasite weight compared to control” value in series [2] (start 6 weeks post-infection) is listed as “no effect”. For the same compound, the “adverse effects during treatment” value in series [2] is reported as “No adverse effects”. Also, the “Kinetic Solubility pH=7.4” value in series [3] was 1.12 µg/mL and 3.55 µM. Further, the IC50 in series [4] (confluent cells, read-out: Confluent HFF (IC50)) was 29.2 ± 0.06 µM; in series [4] (proliferating cells, read-out: Preconfluent HFF (IC50)) it was 4.8 ± 0.59 µM; in series [5], 0.6 ± 0.37 µM; in series [6] it was 0.6 to 1.3 µM. Besides, in series [7], the t½ was 27.2 min.

(Values after paper PMC4788259 (PLoS Neglected Tropical Diseases, 2016).)
